Read-outs that look alike come from different tables or passages of the source.
Experiments:
[1] = target: T1, MC1R (B16-F1 cells) (Mus musculus, UniProt Q01727); assay: Competition binding assay with [^125I]-NDP-MSH, mouse B16-F1 melanoma cells; conditions: B16-F1 cells, [^125I]-NDP-MSH competition, 15°C, 3 h; n = 3–20; ± SEM; ^c = P < 0.05 vs. DOTA-NAP-amide; read-out: Receptor-binding potency IC50
T1 construct: endogenous in cells; host or cells: mouse B16-F1 melanoma cells
Description: (§1) Triplicates of 100-µL volumes of B16-F1 or HBL cell suspensions adjusted to 4 × 10^6/mL were incubated in 96-well U-bottom microplates (Falcon 3077). The binding medium consisted of MEM with Earle’s salts, 0.2% BSA, and 0.3 mM 1,10-phenanthroline. This binding medium was called mouse binding medium (MBM). Triplicates of competitor peptide solution (50 µL) yielding final concentrations ranging from 1 × 10^−6 to 1 × 10^−12 M were added. [^125I]NDP-MSH (50,000 cpm) in 50 µL was finally added to each well. The plates were incubated at 15°C for 3 h for B16-F1 cells and at 37°C for 2 h for HBL cells. The incubation was stopped by covering the plates with ice for 10 min. A cell harvester was used to collect cell-bound radioactivity on filters (Packard Unifilter-96 GF/B). The collected radioactivity was counted on a TopCount scintillation counter (Packard) after addition of 50 µL Microscint-20 scintillation cocktail (Perkin Elmer). The IC50 values were calculated with the Prism 6 software (GraphPad Software Inc., San Diego CA, USA).
(§2) The binding affinity of the peptides to MC1R was assessed by competition binding assays using [^125I]-NDP-MSH as radioligand and both murine B16-F1 and human HBL cells.

[2] = target: T2, MC1R (HBL cells) (Homo sapiens, UniProt Q01726); assay: Competition binding assay with [^125I]-NDP-MSH, human HBL melanoma cells; conditions: HBL cells, [^125I]-NDP-MSH competition, 37°C, 2 h; n = 3–20; ± SEM; ^c = P < 0.05 vs. DOTA-NAP-amide; read-out: Receptor-binding potency IC50
T2 construct: endogenous in cells; host or cells: human HBL melanoma cell line
T2 sequence (Q01726 whole entry): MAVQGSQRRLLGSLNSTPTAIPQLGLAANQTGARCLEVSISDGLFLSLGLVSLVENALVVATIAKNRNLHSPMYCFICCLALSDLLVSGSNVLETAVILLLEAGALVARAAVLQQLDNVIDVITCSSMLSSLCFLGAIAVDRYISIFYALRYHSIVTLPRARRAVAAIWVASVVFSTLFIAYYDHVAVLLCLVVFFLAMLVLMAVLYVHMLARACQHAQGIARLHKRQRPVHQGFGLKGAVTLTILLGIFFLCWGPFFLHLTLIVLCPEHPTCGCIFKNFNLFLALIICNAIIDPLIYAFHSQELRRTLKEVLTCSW
Description: as §1, §2

[3] = Biodistribution of ^111In-labeled peptides in B16-F1 melanoma-bearing mice; type: in vivo, mouse (B6D2F1); conditions: female, iv, total radioactivity, ^111In-labeled peptide, 185 kBq i.v., mean ± SEM of three experiments, n = 5 animals each
Description: About 5 × 10^5 B16-F1 cells were implanted subcutaneously to female B6D2F1 mice (C57BL/6 × DBA/2F1 hybrids; breeding pairs obtained from IFFA-CREDO, France). Seven days later, 185 kBq of ^111In-labeled ligand in 200 µL PBS/0.1% BSA were injected intravenously into the lateral tail vein of each mouse. Control mice were injected with a mixture of the tracer and 50 µg α-MSH to determine the non-specific uptake of radioligand. The animals were sacrificed 4, 24, and 48 h postinjection, dissected, and the tissues of interest collected, rinsed of excess blood, and weighed. The radioactivity emitted by each organ was measured in a γ-counter to determine the tissue uptake as percentage of the injected dose (ID) per gram of tissue. The total of injected radioactivity per animal was determined by extrapolation from the counts of a standard collected from the injection solution for each animal. Urine samples were collected at 10, 15, and 20 min and 4 h after injection and kept frozen at −80°C until use. Urine (1 vol) was mixed with methanol (2 vol) to precipitate proteins, and the supernatant was analyzed by RP-HPLC/γ-detection, as described in Ref. ([12]).
Results are expressed as means ± SEM, unless otherwise stated. The statistical evaluation of data was performed using the one- or two-way ANOVA test. When significant overall effects were obtained by ANOVA, multiple comparisons were made with the Bonferroni correction. P < 0.05 was considered statistically significant. The area under the curve (AUC) was calculated with the GraphPad Prism 6 software for the indicated period of time, using the mean tissue uptake value at each time point.

[4] = B6D2F1 (C57BL/6 × DBA/2F1 hybrids), mouse, blood, read-out: Blood uptake
[5] = B6D2F1 (C57BL/6 × DBA/2F1 hybrids), mouse, muscle, read-out: Muscle uptake
[6] = B6D2F1 (C57BL/6 × DBA/2F1 hybrids), mouse, tumor, read-out: Tumor uptake
[7] = B6D2F1, mouse, bone, read-out: Bone uptake
[8] = B6D2F1, mouse, heart, read-out: Heart uptake
[9] = B6D2F1, mouse, kidney, read-out: Kidney uptake
[10] = B6D2F1, mouse, liver, read-out: Liver uptake
[11] = B6D2F1, mouse, lung, read-out: Lung uptake
[12] = B6D2F1, mouse, pancreas, read-out: Pancreas uptake
[13] = B6D2F1, mouse, small intestines, read-out: Small intestines uptake
[14] = B6D2F1, mouse, spleen, read-out: Spleen uptake
[15] = B6D2F1, mouse, stomach, read-out: Stomach uptake

T1 sequence (Q01727 whole entry): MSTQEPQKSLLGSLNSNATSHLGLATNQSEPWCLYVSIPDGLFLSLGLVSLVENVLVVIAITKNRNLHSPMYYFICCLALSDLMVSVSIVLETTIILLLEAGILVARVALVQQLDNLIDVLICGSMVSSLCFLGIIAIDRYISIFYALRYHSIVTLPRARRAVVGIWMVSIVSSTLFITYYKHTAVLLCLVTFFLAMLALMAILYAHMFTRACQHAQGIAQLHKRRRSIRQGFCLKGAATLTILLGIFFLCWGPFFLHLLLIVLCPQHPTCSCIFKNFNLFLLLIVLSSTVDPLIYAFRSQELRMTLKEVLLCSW

With `CCCC[C@H](NC(C)=O)C(=O)N[C@@H](CC(=O)O)C(=O)N[C@@H](Cc1c[nH]cn1)C(=O)N[C@H](Cc1ccccc1)C(=O)N[C@@H](CCCNC(=N)N)C(=O)N[C@@H](Cc1c[nH]c2ccccc12)C(=O)NCC(=O)N[C@@H](CCCCNC(=O)CN1CCN(CC(=O)O)CCN(CC(=O)O)CCN(CC(=O)O)CC1)C(N)=O` [DOTA-NAP-amide, [Ac-Nle^4,Asp^5,D-Phe^7,Lys^11(DOTA)]-α-MSH4-11, reference compound] as the compound, how does the IC50 [1] read?
The IC50 was 1.38 ± 0.35 nM.

What about the IC50 [2] of the same compound?
The IC50 was 3.09 ± 1.11 nM.

What about the tissue uptake at 4 h [3, 4] of the same compound?
The tissue uptake at 4 h was 0.09 ± 0.02 %ID/g.

What about the tissue uptake at 24 h [3, 4] of the same compound?
Its tissue uptake at 24 h is 0.02 %ID/g.

And the tissue uptake at 48 h ([3]; B6D2F1 (C57BL/6 × DBA/2F1 hybrids), mouse, bone, read-out: Bone uptake)?
The tissue uptake at 48 h was 0.05 ± 0.01 %ID/g.

What about the tissue uptake at 4 h [3, 5] of the same compound?
The tissue uptake at 4 h was 0.05 ± 0.01 %ID/g.

And the tissue uptake at 24 h [3, 5]?
Its tissue uptake at 24 h is 0.02 %ID/g.

And the tissue uptake at 48 h [3, 5]?
The tissue uptake at 48 h was 0.01 %ID/g.

And the tissue uptake at 24 h [3, 6]?
The tissue uptake at 24 h was 2.32 ± 0.15 %ID/g.

And the tissue uptake at 48 h [3, 6]?
The tissue uptake at 48 h was 1.41 ± 0.12 %ID/g.

And the tissue uptake at 4 h [3, 7]?
The tissue uptake at 4 h was 0.11 ± 0.02 %ID/g.

And the tissue uptake at 24 h [3, 7]?
The tissue uptake at 24 h was 0.14 ± 0.02 %ID/g.

What about the tissue uptake at 4 h [3, 8] of the same compound?
The tissue uptake at 4 h was 0.05 ± 0.01 %ID/g.

What about the tissue uptake at 24 h [3, 8] of the same compound?
Its tissue uptake at 24 h is 0.03 %ID/g.

What about the tissue uptake at 48 h [3, 8] of the same compound?
The tissue uptake at 48 h was 0.01 %ID/g.

What about the tissue uptake at 24 h [3, 9] of the same compound?
Its tissue uptake at 24 h is 2.41 ± 0.2 %ID/g.

And the tissue uptake at 48 h [3, 9]?
The tissue uptake at 48 h was 1.55 ± 0.07 %ID/g.

And the tissue uptake at 4 h [3, 10]?
Its tissue uptake at 4 h is 0.34 ± 0.05 %ID/g.

What about the tissue uptake at 24 h [3, 10] of the same compound?
Its tissue uptake at 24 h is 0.31 ± 0.02 %ID/g.

And the tissue uptake at 48 h [3, 10]?
Its tissue uptake at 48 h is 0.27 ± 0.07 %ID/g.

What about the tissue uptake at 4 h [3, 11] of the same compound?
The tissue uptake at 4 h was 0.08 ± 0.01 %ID/g.

And the tissue uptake at 24 h [3, 11]?
Its tissue uptake at 24 h is 0.05 ± 0.01 %ID/g.

What about the tissue uptake at 48 h [3, 11] of the same compound?
The tissue uptake at 48 h was 0.03 %ID/g.

And the tissue uptake at 4 h [3, 12]?
Its tissue uptake at 4 h is 0.04 %ID/g.

What about the tissue uptake at 24 h [3, 12] of the same compound?
Its tissue uptake at 24 h is 0.03 %ID/g.

And the tissue uptake at 48 h [3, 12]?
The tissue uptake at 48 h was 0.02 %ID/g.

And the tissue uptake at 4 h [3, 13]?
Its tissue uptake at 4 h is 0.07 ± 0.01 %ID/g.

And the tissue uptake at 24 h [3, 13]?
Its tissue uptake at 24 h is 0.08 ± 0.01 %ID/g.

And the tissue uptake at 48 h [3, 13]?
Its tissue uptake at 48 h is 0.05 ± 0.01 %ID/g.

What about the tissue uptake at 4 h [3, 14] of the same compound?
The tissue uptake at 4 h was 0.14 ± 0.01 %ID/g.

What about the tissue uptake at 24 h [3, 14] of the same compound?
The tissue uptake at 24 h was 0.11 ± 0.01 %ID/g.

What about the tissue uptake at 48 h [3, 14] of the same compound?
Its tissue uptake at 48 h is 0.1 ± 0.01 %ID/g.

What about the tissue uptake at 4 h [3, 15] of the same compound?
The tissue uptake at 4 h was 0.09 ± 0.01 %ID/g.

What about the tissue uptake at 24 h [3, 15] of the same compound?
Its tissue uptake at 24 h is 0.12 ± 0.02 %ID/g.

What about the tissue uptake at 48 h [3, 15] of the same compound?
Its tissue uptake at 48 h is 0.11 ± 0.05 %ID/g.

Source: article PMC5405074, “Receptor-Mediated Melanoma Targeting with Radiolabeled α-Melanocyte-Stimulating Hormone: Relevance of the Net Charge of the Ligand” (Frontiers in Endocrinology, 2017)
